{"source": "paper PMC9916969", "about": "(International Journal of Molecular Sciences, 2023)", "origin": "cited, not measured here", "key": {"[1]": {"system": "porcine liver CES", "settings": "compound 20 µM; cited from earlier work"}, "[2]": {"biological_target": "T1, equine serum BChE (Equus caballus, UniProt P81908)", "T1 construct": "human erythrocyte AChE, equine serum BChE, and porcine liver CES were used; purchased Sigma-Aldrich; host or cells: equine serum (tissue-derived)", "T1 sequence (P81908 whole entry)": "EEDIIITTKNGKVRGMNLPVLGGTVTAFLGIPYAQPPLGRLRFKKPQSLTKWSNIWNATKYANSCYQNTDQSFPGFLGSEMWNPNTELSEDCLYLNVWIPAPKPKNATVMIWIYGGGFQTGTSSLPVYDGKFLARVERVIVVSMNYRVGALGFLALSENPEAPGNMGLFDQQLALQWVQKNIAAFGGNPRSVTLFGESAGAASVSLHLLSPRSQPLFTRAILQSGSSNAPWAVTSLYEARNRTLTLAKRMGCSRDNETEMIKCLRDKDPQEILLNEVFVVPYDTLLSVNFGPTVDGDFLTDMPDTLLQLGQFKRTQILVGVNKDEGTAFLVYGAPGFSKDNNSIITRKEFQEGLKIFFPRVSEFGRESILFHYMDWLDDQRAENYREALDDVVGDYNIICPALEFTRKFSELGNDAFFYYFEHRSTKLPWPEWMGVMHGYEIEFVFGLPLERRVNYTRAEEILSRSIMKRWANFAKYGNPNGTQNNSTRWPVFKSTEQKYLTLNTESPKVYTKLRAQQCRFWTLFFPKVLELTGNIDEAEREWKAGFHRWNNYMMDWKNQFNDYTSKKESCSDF", "settings": "compound 20 µM; cited from earlier work"}, "[3]": {"settings": "cited from earlier work"}}, "data": [{"substance": "N-hexylsalicylamide", "values": [{"measurement": "Inhibitory activity against CES, inhibition at 20 µM", "setting": "[1]", "value": "4.9 ± 1.0", "unit": "%"}, {"measurement": "Inhibitory activity against BChE, inhibition at 20 µM", "setting": "[2]", "value": "10.6 ± 0.8", "unit": "%"}, {"measurement": "IC50", "setting": "[3]; 50% reduction of ABTS radical cation, read-out: ABTS^•+ Scavenging Activity, IC50", "value": "46.5 ± 2.3", "unit": "µM"}, {"measurement": "ABTS^•+ Scavenging Activity, TEAC", "setting": "[3]; Trolox equivalent", "value": "0.39 ± 0.04"}]}]}
